Measurements: patent US20060058345A1, “Use of papaverine-like vasodilator and pharmaceutical composition” (Ursapharm Arzneimittel GmbH & Co KG, priority 2002, published 2006)
Values joined by “and” are separate entries in the source; they are usually repeats but may differ in a detail not shown here. Identical values can stand only once. Counter-ions that a name gives are not always drawn.

Assays:
[1] = tested on: albino rabbits; test: Compatibility study, topical application to the rabbit eye over 28 days (EU Directive 92/69/EEC, method B.5); type: in vivo; conditions: 50 μl aqueous solution pH 3.0-3.5, right eye, twelve albino rabbits
Protocol: In a compatibility study 50 μl of a moxaverine hydrochloride-bearing aqueous solution with a pH of 3.0-3.5 was applied to the right eye of twelve albino rabbits in each case over a period of 28 days with four applications per working day and two applications per weekend day in a single dose. The left eye served in each case as a control. Evaluation of the eye reaction was effected in accordance with the Table of EU Directive 92/69/EEC, Appendix, method B.5.

[2] = Absorption of 14C-marked moxaverine into eye tissues and plasma after ocular or systemic application; conditions: for Amount of active substance in the moist tissue: single experiments
[3] = ocular application, after 30 minutes, Aqueous humor
[4] = ocular application, after 30 minutes, Lens
[5] = ocular application, after 30 minutes, Plasma
[6] = ocular application, after 120 minutes, Retina
[7] = systemic application (intravenous), after 30 minutes, Aqueous humor
[8] = systemic application (intravenous), after 30 minutes, Iris/ciliary process
[9] = systemic application (intravenous), after 30 minutes, Lens
[10] = systemic application (intravenous), after 30 minutes, Plasma
[11] = systemic application (intravenous), after 30 minutes, Retina
[12] = systemic application (intravenous), after 30 minutes, Vitreous humor
[13] = systemic application (intravenous), after 120 minutes, Aqueous humor
[14] = systemic application (intravenous), after 120 minutes, Conjunctiva
[15] = systemic application (intravenous), after 120 minutes, Iris/ciliary process
[16] = systemic application (intravenous), after 120 minutes, Lens
[17] = systemic application (intravenous), after 120 minutes, Plasma
[18] = systemic application (intravenous), after 120 minutes, Retina
[19] = systemic application (intravenous), after 120 minutes, Sclera
[20] = systemic application (intravenous), after 120 minutes, Vitreous humor

## CCc1cc2cc(OC)c(OC)cc2c(Cc2ccccc2)n1 [moxaverine hydrochloride]
[1]
  Eye reaction: changes to the iris, clouding of the cornea: No changes to the iris or clouding of the cornea were observed
  Eye reaction: swelling of the lids, reddening of the conjunctiva: No rabbit exhibited swelling of the lids or any reddening of the conjunctiva

## CCc1cc2cc(OC)c(OC)cc2c(Cc2ccccc2)n1 [moxaverine]
[2]; 30 minutes
  Factor by which concentration in the iris and the ciliary process is less with systemic than with topical application: ~6
[2]; 120 minutes
  Factor by which concentration in the iris and the ciliary process is less with systemic than with topical application: ~18
[2]; after 30 minutes
  Concentration in the retina, systemic compared to topical administration: slightly above
[2]; ocular application
  Concentration in the conjunctiva and the cornea after 120 minutes compared to 30 minutes: decreased
  Concentration in the iris and the ciliary process after 120 minutes compared to 30 minutes: almost doubled
  Increase of concentration in the retina after 120 minutes compared to 30 minutes: about 50%
[2]; [3]
  Amount of active substance in the moist tissue, Mean value: 1.9529E−07 mg of moxaverine/g of moist tissue
  Amount of active substance in the moist tissue: 1.4923E−07 mg of moxaverine/g of moist tissue and 2.6321E−07 mg of moxaverine/g of moist tissue and 1.7533E−07 mg of moxaverine/g of moist tissue
[2]; ocular application, after 30 minutes, Conjunctiva
  Amount of active substance in the moist tissue, Mean value: 6.1602E−04 mg of moxaverine/g of moist tissue
[2]; ocular application, after 30 minutes, Cornea
  Amount of active substance in the moist tissue, Mean value: 1.8538E−03 mg of moxaverine/g of moist tissue
[2]; ocular application, after 30 minutes, Iris/ciliary process
  Amount of active substance in the moist tissue, Mean value: 1.5028E−03 mg of moxaverine/g of moist tissue
[2]; [4]
  Amount of active substance in the moist tissue, Mean value: 4.9582E−05 mg of moxaverine/g of moist tissue
  Amount of active substance in the moist tissue: 4.6171E−05 mg of moxaverine/g of moist tissue and 6.1860E−05 mg of moxaverine/g of moist tissue and 4.0715E−05 mg of moxaverine/g of moist tissue
[2]; [5]
  Amount of active substance in the moist tissue, Mean value: 2.0234E−05 mg of moxaverine/g of moist tissue
  Amount of active substance in the moist tissue: 2.3741E−05 mg of moxaverine/g of moist tissue and 1.8259E−05 mg of moxaverine/g of moist tissue and 1.8702E−05 mg of moxaverine/g of moist tissue
[2]; ocular application, after 30 minutes, Retina
  Amount of active substance in the moist tissue, Mean value: 1.0031E−04 mg of moxaverine/g of moist tissue
[2]; ocular application, after 30 minutes, Sclera
  Amount of active substance in the moist tissue, Mean value: 1.0012E−04 mg of moxaverine/g of moist tissue
[2]; ocular application, after 30 minutes, Vitreous humor
  Amount of active substance in the moist tissue, Mean value: 1.1544E−07 mg of moxaverine/g of moist tissue
[2]; ocular application, after 120 minutes, Aqueous humor
  Amount of active substance in the moist tissue, Mean value: 9.3417E−08 mg of moxaverine/g of moist tissue
[2]; ocular application, after 120 minutes, Conjunctiva
  Amount of active substance in the moist tissue, Mean value: 3.7275E−04 mg of moxaverine/g of moist tissue
[2]; ocular application, after 120 minutes, Cornea
  Amount of active substance in the moist tissue, Mean value: 1.1057E−03 mg of moxaverine/g of moist tissue
[2]; ocular application, after 120 minutes, Iris/ciliary process
  Amount of active substance in the moist tissue, Mean value: 2.9849E−03 mg of moxaverine/g of moist tissue
[2]; ocular application, after 120 minutes, Lens
  Amount of active substance in the moist tissue, Mean value: 5.6780E−05 mg of moxaverine/g of moist tissue
[2]; ocular application, after 120 minutes, Plasma
  Amount of active substance in the moist tissue, Mean value: 1.2891E−05 mg of moxaverine/g of moist tissue
[2]; [6]
  Amount of active substance in the moist tissue, Mean value: 1.4397E−04 mg of moxaverine/g of moist tissue
  Amount of active substance in the moist tissue: 1.8933E−04 mg of moxaverine/g of moist tissue and 1.4755E−04 mg of moxaverine/g of moist tissue and 9.5039E−05 mg of moxaverine/g of moist tissue
[2]; ocular application, after 120 minutes, Sclera
  Amount of active substance in the moist tissue, Mean value: 1.0330E−04 mg of moxaverine/g of moist tissue
[2]; ocular application, after 120 minutes, Vitreous humor
  Amount of active substance in the moist tissue, Mean value: 9.6118E−09 mg of moxaverine/g of moist tissue
[2]; same application amount
  Absorption and biological availability in the eye, topical compared to systemic application: better absorbed by the eye with topical application and exhibits a markedly longer biological availability in the eye
[2]; systemic application
  Concentration in the iris and the ciliary process at 120 minutes as share of the concentration after 30 minutes: about 63%
  Factor of decrease of concentration in the retina from 30 to 120 minutes: 1.6
[2]; [7]
  Amount of active substance in the moist tissue, Mean value: 2.2632E−09 mg of moxaverine/g of moist tissue
  Amount of active substance in the moist tissue: 2.0291E−09 mg of moxaverine/g of moist tissue and 2.4973E−09 mg of moxaverine/g of moist tissue
[2]; systemic application (intravenous), after 30 minutes, Conjunctiva
  Amount of active substance in the moist tissue, Mean value: 2.4278E−05 mg of moxaverine/g of moist tissue
[2]; systemic application (intravenous), after 30 minutes, Cornea
  Amount of active substance in the moist tissue, Mean value: 8.1549E−06 mg of moxaverine/g of moist tissue
[2]; [8]
  Amount of active substance in the moist tissue, Mean value: 2.5186E−04 mg of moxaverine/g of moist tissue
  Amount of active substance in the moist tissue: 2.2898E−04 mg of moxaverine/g of moist tissue and 2.7473E−04 mg of moxaverine/g of moist tissue
[2]; [9]
  Amount of active substance in the moist tissue, Mean value: 1.2813E−06 mg of moxaverine/g of moist tissue
  Amount of active substance in the moist tissue: 9.5659E−07 mg of moxaverine/g of moist tissue and 1.6061E−06 mg of moxaverine/g of moist tissue
[2]; [10]
  Amount of active substance in the moist tissue, Mean value: 3.4421E−05 mg of moxaverine/g of moist tissue
  Amount of active substance in the moist tissue: 2.8375E−05 mg of moxaverine/g of moist tissue and 4.9032E−05 mg of moxaverine/g of moist tissue and 2.5855E−05 mg of moxaverine/g of moist tissue
[2]; [11]
  Amount of active substance in the moist tissue, Mean value: 1.3046E−04 mg of moxaverine/g of moist tissue
  Amount of active substance in the moist tissue: 1.0666E−04 mg of moxaverine/g of moist tissue and 1.5425E−04 mg of moxaverine/g of moist tissue
[2]; systemic application (intravenous), after 30 minutes, Sclera
  Amount of active substance in the moist tissue, Mean value: 3.3698E−05 mg of moxaverine/g of moist tissue
[2]; [12]
  Amount of active substance in the moist tissue, Mean value: 2.0811E−09 mg of moxaverine/g of moist tissue
  Amount of active substance in the moist tissue: 2.6534E−09 mg of moxaverine/g of moist tissue and 1.5088E−09 mg of moxaverine/g of moist tissue
[2]; [13]
  Amount of active substance in the moist tissue, Mean value: 1.9944E−09 mg of moxaverine/g of moist tissue
  Amount of active substance in the moist tissue: 2.3412E−09 mg of moxaverine/g of moist tissue and 1.8210E−09 mg of moxaverine/g of moist tissue
[2]; [14]
  Amount of active substance in the moist tissue, Mean value: 2.2936E−05 mg of moxaverine/g of moist tissue
  Amount of active substance in the moist tissue: 2.7539E−05 mg of moxaverine/g of moist tissue and 1.5261E−05 mg of moxaverine/g of moist tissue and 2.6009E−05 mg of moxaverine/g of moist tissue
[2]; systemic application (intravenous), after 120 minutes, Cornea
  Amount of active substance in the moist tissue, Mean value: 7.6083E−06 mg of moxaverine/g of moist tissue
[2]; [15]
  Amount of active substance in the moist tissue, Mean value: 1.5907E−04 mg of moxaverine/g of moist tissue
  Amount of active substance in the moist tissue: 1.2211E−04 mg of moxaverine/g of moist tissue and 1.6708E−04 mg of moxaverine/g of moist tissue and 1.8802E−04 mg of moxaverine/g of moist tissue
[2]; [16]
  Amount of active substance in the moist tissue, Mean value: 1.5477E−06 mg of moxaverine/g of moist tissue
  Amount of active substance in the moist tissue: 1.3706E−06 mg of moxaverine/g of moist tissue and 2.0870E−06 mg of moxaverine/g of moist tissue and 1.1854E−06 mg of moxaverine/g of moist tissue
[2]; [17]
  Amount of active substance in the moist tissue, Mean value: 2.2620E−05 mg of moxaverine/g of moist tissue
  Amount of active substance in the moist tissue: 2.4420E−05 mg of moxaverine/g of moist tissue and 2.1190E−05 mg of moxaverine/g of moist tissue and 2.2250E−05 mg of moxaverine/g of moist tissue
[2]; [18]
  Amount of active substance in the moist tissue, Mean value: 7.7330E−05 mg of moxaverine/g of moist tissue
  Amount of active substance in the moist tissue: 9.5067E−05 mg of moxaverine/g of moist tissue and 8.3068E−05 mg of moxaverine/g of moist tissue and 5.3855E−05 mg of moxaverine/g of moist tissue
[2]; [19]
  Amount of active substance in the moist tissue, Mean value: 1.3993E−05 mg of moxaverine/g of moist tissue
  Amount of active substance in the moist tissue: 1.4230E−05 mg of moxaverine/g of moist tissue and 1.1476E−05 mg of moxaverine/g of moist tissue and 1.6272E−05 mg of moxaverine/g of moist tissue
[2]; [20]
  Amount of active substance in the moist tissue, Mean value: 1.2851E−09 mg of moxaverine/g of moist tissue
  Amount of active substance in the moist tissue: 1.5608E−09 mg of moxaverine/g of moist tissue and 9.6772E−10 mg of moxaverine/g of moist tissue and 1.3267E−09 mg of moxaverine/g of moist tissue
[2]; topical application
  Absorption by the eye after topical application to the surface: very well absorbed by the eye
  Factor of increase of concentration in the iris and the ciliary process from 30 minutes to 120 minutes: ~2
  Factor of increase of concentration in the retina from 30 to 120 minutes: 1.4
